Test results: patent US20160279204A1, “PEPTIDES AND PHARMACEUTICAL COMPOSITIONS FOR USE IN THE TREATMENT BY NASAL ADMINISTRATION OF PATIENTS SUFFERING FROM ANXIETY AND SLEEP DISORDERS” (MAX-PLANCK-GESELLSCHAFT ZUR FÖRDERUNG DER WISSENSCHAFT E.V., priority 2011, published 2016)
“Also recorded” adds a separate entry of the source.

Key:
[1] = test system: evoked neuronal activity flow from the dentate gyrus to area CA1; test: Voltage-sensitive dye imaging (VSDI) in VH slices; design: species or system mouse; details: bath application of NPS 1 μM
Procedure: According to Maggio and Segal (2007) and Fanselow and Dong (2010), VSDI experiments were conducted in the VH. Horizontal brain slices (350 μm-thick) were prepared as described in Refojo et al., 2011 and/or von Wolff et al., 2011). Only the first two slices from the ventral surface of the brain in which the CA1 region was clearly visible were used for the measurements. Staining of slices with the voltage-sensitive dye Di-4-ANEPPS and VSDI were carried out at room temperature (23-25° C.). For staining, slices were kept for 15 min in carbogenated (95% O2/5% CO2) ACSF containing Di-4-ANEPPS (7.5 μg/mL; <0.1% DMSO). The ACSF (pH 7.4) consisted of (in mM): 125 NaCl, 2.5 KCl, 25 NaHCO3, 1.25 NaH2PO4, 2 CaCl2, 1 MgCl2, and 25 glucose. Afterwards, slices were stored for at least 30 min in pure carbogenated ACSF. In the recording chamber, slices were continuously superfused with carbogenated ACSF (3 mL/min flow rate). VSDI and data analysis were performed using the MiCAM02 hard- and software package (BrainVision, Tokyo, Japan). The tandem-lens fluorescence microscope was equipped with the MiCAM02-HR camera and the 2× and 1× lens at the objective and condensing side, respectively. Acquisition settings were: 88×60 pixels frame size, 36.4×40.0 μm pixel size, and 2.2 ms sampling time. To reduce noise, four acquisitions subsequently recorded at intervals of 5 s were averaged. Neuronal activity was evoked by square pulse electrical stimuli (200 μs, 15-20 V) delivered to the dentate gyrus granule cell layer via a custom-made monopolar tungsten electrode (Teflon-insulated to the tip of 75 μm diameter). From recorded signals, the fractional change in fluorescence (ΔF/F) was calculated. For all quantifications, ΔF/F values were spatially and temporally smoothed using a 3×3×3 average filter. VSDI signals presented in images were smoothed with a 5×5×3 average filter. Pixelation of images was reduced by the interpolation function of the MiCAM02 software. […]

[2] = test system: GluR1, GluR2, Glt-1, synapsin; test: Immunoblotting of prefrontal cortex and hippocampus lysates after intranasal NPS; assay type: in vivo, mouse; details: 24 hrs after intranasal NPS
Procedure: Behavioural tests (open field, dark-light test and elevated plus maze (EPM)) following intranasal NPS application were performed sequentially. Each test lasted for 5 min with an inter-test interval of 5 min, as described previously (Bunck et al., 2009; Krömer et al., 2005). The animals' behaviour during testing was videotaped and relevant parameters were analysed with the tracking software ANY-maze version 4.30 (Stoelting, Wood Dale, Ill., USA). Native NPS (1 μg/μL) or vehicle (Ringer solution) were administered intranasally to the alert mouse as described above (total volume: 14 μL). Mice were tested 30 min and 4 hrs after intranasal administration of first drop. Animals were sacrificed 24 hrs after treatment and prefrontal cortex and bilateral hippocampi were prepared immediately and shock-frozen in methylbutane.
For immunoblotting, proteins were extracted from aforementioned two brain regions (prefrontal cortex and bilateral hippocampi). Quantitative blot analysis was performed using ImageJ software (http://rsbweb.nih.gov/ij/; Rasband, W. S., ImageJ, U.S. National Institutes of Health). Primary antibodies used: Glt-1, Glu-R1, Glu-R2 (all 1:100; all from Santa Cruz Biotechnology, Santa Cruz, Calif., USA), synapsin (1:2000; Synaptic Systems, Goettingen, Germany) and GAPDH (1:2000, Santa Cruz Biotechnology, Santa Cruz, Calif., USA). Secondary antibodies used: donkey anti-goat IgG-HRP (1:10000; Santa Cruz Biotechnology, Santa Cruz, Calif., USA), goat anti-rabbit IgG-HRP (1:7500, Sigma-Aldrich, St. Louis, Mo., USA) and goat anti-mouse IgG-HRP (1:25000, Sigma-Aldrich, St. Louis, Mo., USA).

NPSR = biological target: T1, NPSR (Mus musculus, UniProt Q8BZP8); details: rodents, ICV injection, US 2010/0056455; cited from earlier work
T1 construct: host or cells: rodent brain in vivo
T1 sequence (Q8BZP8 1-371): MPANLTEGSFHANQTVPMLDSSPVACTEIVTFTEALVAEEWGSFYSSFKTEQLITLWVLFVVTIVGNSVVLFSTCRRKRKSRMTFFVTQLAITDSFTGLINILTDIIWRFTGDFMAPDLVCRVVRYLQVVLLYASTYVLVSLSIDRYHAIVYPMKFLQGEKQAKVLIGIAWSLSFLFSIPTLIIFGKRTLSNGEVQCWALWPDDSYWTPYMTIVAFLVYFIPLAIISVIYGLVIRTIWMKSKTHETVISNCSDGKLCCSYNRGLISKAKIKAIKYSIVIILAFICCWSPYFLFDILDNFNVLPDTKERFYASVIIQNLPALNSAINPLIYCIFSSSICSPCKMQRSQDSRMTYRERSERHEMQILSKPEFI

[3] = test system: Cy3-NPS uptake in mouse brain; test: Cy3-NPS uptake after ICV pre-injection of native NPS; assay type: in vivo; details: native NPS at 5 fold concentration, 10 min prior to ICV Cy3-NPS (0.2 nmol per mouse)
Procedure: The mice were sacrificed 30 min post-injection.
To clarify the mechanism of intracellular Cy3-NPS uptake, native, i.e. unlabeled, NPS at 5 fold concentration was injected unilaterally 10 min prior to ICV injection of Cy3-NPS (0.2 nmol per mouse). […] This points towards a receptor-mediated uptake mechanism, since, as shown for other neuropeptides (cf. Grady et al., 1996; Hubbard et al., 2009) pre-treatment with unlabeled agonists leads to receptor saturation, thereby antagonising the uptake of labelled agonist (here Cy3-NPS).

neuropeptide S (SFRNGVGSGVKKTSFRRAKQ; Neuropeptide S; UniProt P0C0P7 70-89, looked up) [NPS, peptide agonist of neuropeptide S receptor (NPSR); native NPS, rat, from Bachem]
activity flow from the dentate gyrus to the CA1 subfield [1]: rapidly weakened
FDS peak amplitudes ([1]; dentate hilus, CA3 region, area CA1): reduced the amplitude of FDSs in the dentate hilus, the CA3 region, and area CA1; also recorded: decreased FDS peak amplitudes
synapsin expression ([2]; Bl6 mice, hippocampus versus prefrontal cortex): significantly increased in the hippocampus only
GluR1, GluR2 and Glt-1 expression ([2]; Bl6 mice, hippocampus): remained unaffected
Glt-1 expression level ([2]; Bl6 mice, prefrontal cortex): significantly increased
GluR1 expression level ([2]; Bl6 mice, prefrontal cortex): significantly increased
GluR2 expression ([2]; Bl6 mice, prefrontal cortex): remained unchanged
protein expression changes in the hippocampus ([2]; HAB mice, hippocampus): no corresponding changes
Glt-1 levels ([2]; HAB mice, prefrontal cortex): remained unchanged
GluR1 expression ([2]; HAB mice, prefrontal cortex): not affected
GluR2 expression ([2]; HAB mice, prefrontal cortex): significantly increased
locomotor activity and wakefulness (NPSR): increased locomotor activity and wakefulness
effect of pre-injection on Cy3-NPS uptake [3]: reduced Cy3-NPS uptake throughout the brain
